Measured values: US5200409A, “Composition and use of substituted 1,3-dithiolo-and 1,4-dithiinoquinoxalines as an antimicrobial” (The Dow Chemical Company, priority 1992, dated 1993)
Values after ≈ are worked out from the molar mass of the structure shown. Read-outs that look alike come from different tables or passages of the source.

Experiments:
[1] = system: Fusarium oxysporum (Fo); assay: Minimum inhibitory concentration (MIC) in malt yeast agar; assay type: cell-based, Fusarium oxysporum ATCC 48112; settings: read-out: Minimum Inhibitory Concentration, Fo
Description: (§1) The minimum inhibitory concentration (MIC) for the compounds listed in Table I is determined for 9 bacteria, using nutrient agar: and 7 yeast and fungi, using malt yeast agar. A one percent solution of the test compound is prepared in a mixture of acetone and water. Nutrient agar is prepared at pH 6.8, representing a neutral medium, and at pH 8.2, representing an alkaline medium. The nutrient agars are prepared by adding 23 g of nutrient agar to one-liter of deionized water. In addition, the alkaline medium is prepared by adjusting a 0.04M solution of N-[tris-(hydroxymethyl)methyl]-glycine buffered deionized water with concentrated sodium hydroxide to a pH of […]. Malt yeast agar is prepared by adding 3 g yeast extract and 45 g malt agar per liter of deionized water. The specific agar is dispensed in 30 ml aliquots into 25×200 mm test tubes, capped and autoclaved for 15 minutes at 115° C. The test tubes containing the agar are cooled in a water bath until the temperature of the agar is 48° C. Then, an appropriate amount of the one percent solution of the test compound is added (except in the controls where no compound is added) to the respective test tubes so that the final concentrations are 500, 250, 100, 50, 25, 10, 5, 2.5, 1.0 and zero parts per million of the test compound in the agar, thus having a known concentration of test compound dispersed therein. The contents of the test tubes are then transferred to respective petri plates. After drying for 24 hours, the petri plates containing nutrient agar are inoculated with bacteria and those containing malt yeast agar are inoculated with yeast and fungi.
(§2) The inoculation with the yeast and fungi is accomplished as follows. Cultures of yeast and fungi are incubated for seven days on malt yeast agar at 30° C. These cultures are used to prepare suspensions by the following procedure. A suspension of each organism is prepared by adding 10 ml of sterile saline and 10 microliters of octylphenoxy polyethoxy ethanol to the agar slant of yeast or fungi. The sterile saline/octylphenoxy polyethoxy ethanol solution is then agitated with a sterile swab to suspend the microorganism grown on the slant. Each resulting suspension is diluted into sterile saline (1 part suspension: 9 parts sterile saline). Aliquots of these dilutions are placed in individual wells of Steer's Replicator and petri plates inoculated as previously described. The petri plates are incubated at 30° C. and read after 48 hours for yeast and 72 hours for fungi.
(§3) Table II lists the bacteria, yeast and fungi used in the MIC test described above along with their respective American Type Culture Collection (ATCC) identification numbers.

[2] = system: Pseudomonas aeruginosa (PRD-10); assay: Minimum inhibitory concentration (MIC) in nutrient agar; assay type: cell-based, Pseudomonas aeruginosa ATCC 15442; settings: 48 h
Description: as §1
(§4) The inoculation with bacteria is accomplished by using the following procedure. Twenty-four hour-cultures of each of the bacteria are prepared by incubating the respective bacteria in tubes containing nutrient broth for 24 hours at 30° C. in a shaker. Dilutions of each of the 24 hour-cultures are made so that nine separate suspensions (one for each of the nine test bacteria) are made, each containing 10^8 colony forming units (CFU) per ml of suspension of a particular bacteria. Aliquots of 0.3 ml of each of the bacterial suspensions are used to fill the individual wells of Steer's Replicator. For each microbial suspension, 0.3 ml was used to fill three wells (i.e., three wells of 0.3 ml each) so that for the nine different bacteria, 27 wells are filled. The Steer's Replicator is then used to inoculate both the neutral and alkaline pH nutrient agar petri plates.
(§5) The inoculated petri plates are incubated at 30° C. for 48 hours and then read to determine if the test compound which is incorporated into the agar prevented growth of the respective bacteria.
as §3

[3] = system: Candida albicans (Ca); assay: Minimum inhibitory concentration (MIC) in malt yeast agar; assay type: cell-based, Candida albicans ATCC 10231; settings: malt yeast agar; 30° C.; 48 hours for yeast; read-out: Minimum Inhibitory Concentration, Ca
Description: as §1, §2, §3

[4] = system: Trichoderma viride (Tv); assay: as above; assay type: cell-based, Trichoderma viride ATCC 8678; settings: read-out: Minimum Inhibitory Concentration, Tv
Description: as §1, §2, §3

[5] = system: Salmonella choleraesuis (Sc); assay: Minimum inhibitory concentration (MIC) in nutrient agar; assay type: cell-based, Salmonella choleraesuis ATCC 10708; settings: Salmonella enterica, 48 h
Description: as §1, §4, §5, §3

[6] = system: Klebsiella pneumoniae (Kp); assay: as above; assay type: cell-based, Klebsiella pneumoniae ATCC 8308
Description: as §1, §4, §5, §3

[7] = system: Pseudomonas aeruginosa (Pa); assay: as above; assay type: cell-based, Pseudomonas aeruginosa ATCC 10145; settings: 48 hours
Description: as §1, §4, §5, §3

[8] = system: Escherichia coli (Ec); assay: as above; assay type: cell-based, Escherichia coli ATCC 11229; settings: 48 h
Description: as §1, §4, §5, §3

[9] = system: Saccharomyces cerevisiae (Sc); assay: Minimum inhibitory concentration (MIC) in malt yeast agar; assay type: cell-based, Saccharomyces cerevisiae ATCC 4105; settings: malt yeast agar, 30° C., 48 hours for yeast, read-out: Minimum Inhibitory Concentration, Sc
Description: as §1, §2, §3

[10] = system: Bacillus subtilis (Bs); assay: Minimum inhibitory concentration (MIC) in nutrient agar; assay type: cell-based, Bacillus subtilis ATCC 8473
Description: as §1, §4, §5, §3

[11] = system: Enterobacter aerogenes (Ea); assay: as above; assay type: cell-based, Enterobacter aerogenes ATCC 13048; settings: Klebsiella aerogenes, 48 h
Description: as §1, §4, §5, §3

[12] = system: Proteus vulgaris (Pv); assay: as above; assay type: cell-based, Proteus vulgaris ATCC 881; settings: 48 h
Description: as §1, §4, §5, §3

[13] = system: Aspergillus niger (An); assay: Minimum inhibitory concentration (MIC) in malt yeast agar; assay type: cell-based, Aspergillus niger ATCC 16404; settings: malt yeast agar; 30° C.; 72 hours for fungi; read-out: Minimum Inhibitory Concentration, An
Description: as §1, §2, §3

[14] = system: Aureobasidium pullulan (Ap); assay: as above; assay type: cell-based, Aureobasidium pullulan ATCC 16622; settings: read-out: Minimum Inhibitory Concentration, Ap
Description: as §1, §2, §3

[15] = system: Staphylococcus aureus (Sa); assay: Minimum inhibitory concentration (MIC) in nutrient agar; assay type: cell-based, Staphylococcus aureus ATCC 6538
Description: as §1, §4, §5, §3

[16] = system: Penicillium chrysogenum (Pc); assay: Minimum inhibitory concentration (MIC) in malt yeast agar; assay type: cell-based, Penicillium chrysogenum ATCC 9480; settings: malt yeast agar; 30° C.; 72 hours for fungi; read-out: Minimum Inhibitory Concentration, Pc
Description: as §1, §2, §3

[17] = malt yeast agar, 30° C., 72 hours for fungi
[18] = pH 6.8, read-out: Minimum Inhibitory Concentration, PRD
[19] = pH 8.2, read-out: Minimum Inhibitory Concentration, PRD
[20] = pH 6.8, read-out: Minimum Inhibitory Concentration, Sc
[21] = pH 8.2, read-out: Minimum Inhibitory Concentration, Sc
[22] = 48 h, pH 8.2, read-out: Minimum Inhibitory Concentration, Kp
[23] = pH 6.8, nutrient agar, 30° C., 48 hours, read-out: Minimum Inhibitory Concentration, Kp
[24] = pH 6.8, read-out: Minimum Inhibitory Concentration, Ec
[25] = pH 8.2, read-out: Minimum Inhibitory Concentration, Ec
[26] = 48 h, pH 8.2, read-out: Minimum Inhibitory Concentration, Bs
[27] = pH 6.8, read-out: Minimum Inhibitory Concentration, Ea
[28] = pH 8.2, read-out: Minimum Inhibitory Concentration, Ea
[29] = pH 6.8, read-out: Minimum Inhibitory Concentration, Pv
[30] = pH 8.2, read-out: Minimum Inhibitory Concentration, Pv
[31] = malt yeast agar, 30° C., 48 hours for yeast and 72 hours for fungi
[32] = 48 h, pH 8.2, read-out: Minimum Inhibitory Concentration, Sa
[33] = pH 6.8, nutrient agar, 30° C., 48 hours, read-out: Minimum Inhibitory Concentration, Sa
[34] = pH 6.8, nutrient agar, 30° C., 48 hours, read-out: Minimum Inhibitory Concentration, Bs

SMILES	MIC [1, 17] [µg/mL]	MIC [2, 18] [µg/mL]	MIC [2, 19] [µg/mL]	MIC [3] [µg/mL]	MIC [4, 17] [µg/mL]	MIC [5, 20] [µg/mL]	MIC [5, 21] [µg/mL]	MIC [6, 22] [µg/mL]	MIC [6, 23] [µg/mL]	MIC ([7]; pH 6.8, 30° C.) [µg/mL]	MIC ([7]; pH 8.2, 30° C.) [µg/mL]	MIC [8, 24] [µg/mL]	MIC [8, 25] [µg/mL]	MIC [9] [µg/mL]	MIC [10, 26] [µg/mL]	MIC [11, 27] [µg/mL]	MIC [11, 28] [µg/mL]	MIC [12, 29] [µg/mL]	MIC [12, 30] [µg/mL]	MIC [13] [µg/mL]	further results
N#CC(C#N)=C1Sc2nc3ccc(C#N)cc3nc2S1 [S, 6-cyano-1,3-dithiolo-(4,5-b)-quinoxaline-2-ylidene-propanedinitrile]	500 (≈ 1700 µM)	> 500	> 500	500 (≈ 1700 µM)	> 500	> 500	> 500	> 500	> 500	> 500	> 500	> 500	> 500	500 (≈ 1700 µM)	> 500	> 500	> 500	> 500	> 500	100 (≈ 341 µM)	MIC ([10]; 48 h, pH 6.8, read-out: Minimum Inhibitory Concentration, Bs): > 500 µg/mL; MIC [14, 31]: 100 µg/mL (≈ 341 µM); MIC [15, 32]: > 500 µg/mL; MIC [15, 33]: > 500 µg/mL
N#CC1=C(C#N)Sc2nc3cc(C#N)ccc3nc2S1 [H, 7-cyano-1,4-dithiino-(2,3-b)-quinoxaline-2,3-dicarbonitrile]	–	> 500	> 500	25 (≈ 85.2 µM)	–	> 500	> 500	> 500	500 (≈ 1700 µM)	> 500	> 500	> 500	> 500	< 10	–	> 500	> 500	500 (≈ 1700 µM)	> 500	25 (≈ 85.2 µM)	MIC ([1]; 72 h): 50 µg/mL (≈ 170 µM); MIC ([4]; 72 h): 100 µg/mL (≈ 341 µM); MIC [16]: < 10 µg/mL; MIC [10, 34]: < 10 µg/mL; MIC ([10]; pH 8.2, nutrient agar, 30° C., 48 hours, read-out: Minimum Inhibitory Concentration, Bs): 50 µg/mL (≈ 170 µM); MIC [14, 31]: < 10 µg/mL; MIC [15, 33]: 25 µg/mL (≈ 85.2 µM); MIC ([15]; pH 8.2, nutrient agar, 30° C., 48 hours, read-out: Minimum Inhibitory Concentration, Sa): 50 µg/mL (≈ 170 µM)
N#CC1=C(C#N)Sc2nc3cc(C(=O)c4ccccc4)ccc3nc2S1 [V, 7-benzoyl-1,4-dithiino-(2,3-b)-quinoxaline-2,3-dicarbonitrile]	500 (≈ 1340 µM)	> 500	> 500	500 (≈ 1340 µM)	500 (≈ 1340 µM)	> 500	> 500	> 500	> 500	> 500	> 500	> 500	> 500	500 (≈ 1340 µM)	> 500	> 500	> 500	> 500	> 500	–	MIC [16]: 250 µg/mL (≈ 671 µM); MIC [10, 34]: 50 µg/mL (≈ 134 µM); MIC [14]: 250 µg/mL (≈ 671 µM); MIC ([15]; 48 h, pH 6.8, read-out: Minimum Inhibitory Concentration, Sa): 50 µg/mL (≈ 134 µM); MIC [15, 32]: > 500 µg/mL
